From ChEMBL document CHEMBL5154706, “Synthesis of lathyrane diterpenoid nitrogen-containing heterocyclic derivatives and evaluation of their anti-inflammatory activities” (Bioorg Med Chem, 2022)
pIC50: −log10 of the molar value. The source made the active and inactive calls. The calls are words filed in the database; no cut-off is given here.

Tests used:
[1] = system: RAW264.7; experiment: Antiinflammatory activity against mouse RAW264.7 cells assessed as inhibition of LPS-induced NO production preincubated for 3 hrs followed by LPS stimulation and measured after 24 hrs by Griess reagent based assay; type: functional, cell-based
[2] = system: RAW264.7; experiment: Antiinflammatory activity against LPS-induced mouse RAW264.7 cells assessed as increase in intrinsic nitric oxide level at 0.5 ug/ml measured after 3 hrs by Griess reagent based assay; type: functional, cell-based; settings: dose 0.5 µg/ml
[3] = system: RAW264.7; experiment: Antiinflammatory activity against mouse RAW264.7 cells assessed as inhibition of LPS-induced ROS generation at 0.25 to 2 uM preincubated for 3 hrs followed by LPS stimulation and measured after 12 hrs by DCFH-DA probe based flow cytometry; type: functional, cell-based; settings: dose 0.25-2 µM, time 15.0 hrs
[4] = system: RAW264.7; experiment: Antiinflammatory activity against LPS-induced mouse RAW264.7 cells assessed as increase in Nrf2 expression preincubated for 3 hrs followed by LPS stimulation and measured after 24 hrs by Western blot analysis; type: functional, cell-based; settings: dose 0.25-2 µM, time 27.0 hrs, DDE = dose-dependent effect
[5] = system: RAW264.7; experiment: Antiinflammatory activity against LPS-induced mouse RAW264.7 cells assessed as increase in HO-1 expression preincubated for 3 hrs followed by LPS stimulation and measured after 24 hrs by Western blot analysis; type: functional, cell-based; settings: dose 0.25-2 µM, time 27.0 hrs, DDE = dose-dependent effect
[6] = system: RAW264.7; experiment: Antiinflammatory activity against LPS-induced mouse RAW264.7 cells assessed as decrease in Keap1 expression preincubated for 3 hrs followed by LPS stimulation and measured after 24 hrs by Western blot analysis; type: functional, cell-based; settings: dose 0.25-2 µM, time 27.0 hrs, DDE = dose-dependent effect
[7] = target: T1, Nuclear factor erythroid 2-related factor 2 (Mus musculus) (UniProt Q60795); experiment: Induction of LPS-induced Nrf2 nuclear translocation in mouse RAW264.7 cells at 2 uM preincubated for 3 hrs followed by LPS stimulation and measured after 12 hrs by immunofluorescence staining based confocal laser scanning microscopy; type: cell-based; settings: time 15.0 hrs
T1 sequence (whole entry): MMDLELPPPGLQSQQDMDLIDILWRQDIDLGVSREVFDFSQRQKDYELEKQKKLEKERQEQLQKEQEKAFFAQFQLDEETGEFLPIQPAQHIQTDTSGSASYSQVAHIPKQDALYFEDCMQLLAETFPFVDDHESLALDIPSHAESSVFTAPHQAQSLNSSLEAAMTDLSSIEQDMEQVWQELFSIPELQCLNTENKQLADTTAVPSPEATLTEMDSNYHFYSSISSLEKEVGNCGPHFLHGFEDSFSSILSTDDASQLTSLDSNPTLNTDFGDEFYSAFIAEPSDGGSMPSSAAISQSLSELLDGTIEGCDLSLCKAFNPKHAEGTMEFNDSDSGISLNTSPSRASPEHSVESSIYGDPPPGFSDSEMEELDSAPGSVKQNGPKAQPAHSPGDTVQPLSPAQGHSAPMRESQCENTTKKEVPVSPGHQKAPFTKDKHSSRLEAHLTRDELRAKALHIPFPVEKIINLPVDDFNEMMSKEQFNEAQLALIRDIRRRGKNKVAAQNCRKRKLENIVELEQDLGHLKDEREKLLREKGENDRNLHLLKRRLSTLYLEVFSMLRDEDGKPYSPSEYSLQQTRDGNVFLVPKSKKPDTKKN

`C=C1CC[C@H]2[C@@H](/C=C(\C)C(=O)[C@@]3(O)C[C@H](C)[C@H](O)[C@@H]3[C@H]1OC(=O)CCC(=O)OCCOCCOc1no[n+]([O-])c1S(=O)(=O)c1ccccc1)C2(C)C` was tested, and the pIC50 [1] was 6.42, the Activity [2] was “Active” and the inhibition [3] was “Active”. For the same molecule, the Activity [4] was “Dde”, the Activity [5] was “Dde” and the Activity [6] was “Dde”. The Activity [7] was “Active”.
